Measured values from patent US9789200B2, “Therapeutic use of new pharmaceutical preparations containing antitumoral drugs bound to hyaluronic acid in the treatment of neoplasias” (FIDIA FARMACEUTICI S.P.A., priority 2008, dated 2017).
≈ marks a conversion by molar mass, not a printed value.

Legend:
[1] = tested on: DHD/K12/Trb peritoneal carcinomatosis; assay: anti-tumoral effect in vivo, peritoneal carcinomatosis and tumoral ascites induced by DHD/K12/Trb in BDIX rats; design: species or system rat; settings: 40 mg/kg intraperitoneally
Method: Animals treated: 36 male rats BDIX 7 weeks' old (about 200 g) were divided according to experimental criteria into the following groups (each group consists of 12 animals):
1. Control Group: inoculum DHD/K12/trb.
2. CPT-11 Group: inoculum DHD/K12/trb+treatment CTP-11 40 mg/Kg intraperitoneally.
After 14 days of stabling, 1×10^6 DHD/K12/trb cells per rat were inoculated intraperitoneally. After 7 days the therapeutic treatment envisaged was initiated, consisting of 4 therapy cycles. The sacrifice of the animals was established 7 days after the last pharmacological treatment. The animals were evaluated once a week for the appearance of possible signs of toxicity, by measuring the body weight, and for the possible appearance of ascites. At the moment of sacrifice an intracardiac sampling was effected in all the animals and the haematological toxicity due to the pharmacological treatment was evaluated. The tumours and ascites were removed and measured. The tissues removed were fixed in formalin for histological and immunohistochemical evaluation.

[2] = tested on: Adenocarcinoma cells of the colon of a rat DHD/K12/Trb; assay: cytofluorometric analysis of cell phases (DNA content, propidium iodide) and wash out test; type: cell-based; settings: 0.5 μg/ml, 24 h of treatment; ONCOFID-S 3.5% w/w
Method: Adenocarcinoma cells of the colon of a rat DHD/K12/Trb
As described for examples 8 and 9.
The effect of the ONCOFID-S conjugate (at a concentration of 0.5 μg/ml) was determined using an analysis of the cytofluorometric type; after 24 h of pharmacological treatment, the cell phases are identified with FACS-Scan (Becton Dickinson) by cytofluorometric, analysis of the DNA content after colouring the cells with propidium iodide.
In order to evaluate whether the data obtained persist with time, the Wash out test was effected in which, after 48 h of treatment, the culture medium is substituted with fresh medium without treatment: the cell phases were then defined again at the point defined as TO and, after 24 h of culture, T24.

[3] = tested on: Adenocarcinoma cells of the colon of a rat DHD/K12/Trb; assay: cell vitality, Tripan blue exclusion method; type: cell-based; settings: 24 h of treatment, ONCOFID-S derivatized at 3.5% w/w (Example 2)
Source text: Adenocarcinoma cells of the colon of a rat DHD/K12/Trb expressing the receptor for HA CD44
Adenocarcinoma cells of the colon of a rat DHD/K12/Trb.

DHD/Trb cells = assay: fluorescence microscopy of intracellular distribution/expression of E-cadherin, β-catenin, APC, GSK-3β and CK20; type: cell-based, rat; settings: non-conjugated SN38
Source text: Due to the importance of the role of regulating the β-catenin in the formation and progression of colon-rectal carcinomas, it was verified whether the treatment with Oncofid-S is capable of modifying the intracellular expression and distribution of the molecules involved in the control process of the above protein, as previously described. The effect of the treatment with ONCOFID-S on the intracellular distribution of E-cadherin, β-catenin, APC e GSK-3β in the DHD/Trb cells was therefore analyzed by means of fluorescence microscopy. Specific antibodies were used for the above proteins, visualizing them with the use of secondary antibodies bound to fluorochromes such as rodamin and fluoroescein.

SMILES	animals with bloody ascites [1] [%]	average reduction in the tumoral mass ([1]; vs control) [%]	gap1 and S phases of the cell cycle [2]	IC50 [3] [µg/mL]	modifications relating to cell differentiation (APC/GSK-3β, β-catenin, E-cadherin, CK20) (DHD/Trb cells)
CCc1c2c(nc3ccc(OC(=O)N4CCC(N5CCCCC5)CC4)cc13)-c1cc3c(c(=O)n1C2)COC(=O)[C@]3(O)CC [CPT-11, Irinotecan]	83	62	–	–	–
CCc1c2c(nc3ccc(O)cc13)-c1cc3c(c(=O)n1C2)COC(=O)[C@]3(O)CC [SN38]	–	–	increases both the first phase and the S phase	1.4 (≈ 3.57 µM)	not revealed
